# According to patent publication US10294234B2, “HIV inhibitor compounds” (priority 2017, dated 2019):
# Like-named read-outs stand apart in the source and are kept apart here.
# Experiments:
# [1] = system: HIV-1 (IIIB) in MT-4 cells; experiment: MT-4 HIV assay; type: cell-based; conditions: HIV-1 (IIIB), MT-4 cells, 5 days, Cell Titer Glo, read-out: EC50
# Procedure, shortened: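 MT-4 cells infected with HIV-1 IIIB (1:250 stock dilution) were incubated with 1:3 serially diluted compounds in RPMI with 10% FBS for 5 days at 37 °C. Cell Titer Glo luminescence was the readout. Plates included mock-infected wells, no-drug wells and 5 uM AZT controls.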
# [2] = Procedure, shortened: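 Compounds at 1 uM were incubated in duplicate with dog, rat or human liver microsomes (0.5 mg/mL protein) and an NADPH-regenerating system, sampled at 2, 12, 25, 45 and 65 minutes. Remaining parent was measured by LC/MS/MS, and Clint was calculated from the in vitro t1/2.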
# [3] = Human immunodeficiency virus 1, MT4, 120 h
# [4] = human liver microsomes 0.5 mg/mL, 1 uM compound, NADPH
# [5] = rat liver microsomes 0.5 mg/mL, 1 uM compound, NADPH
Compound,"EC50 [1, 3] [nM]","Human Pred Cl. [2, 4] [L/H/kg]","Rat. Pred. Cl. [2, 5] [L/H/kg]",Dog. Pred. Cl. ([2]; microsomes) [L/H/kg],"Human Pred Cl. ([2]; human, microsomes) [L/H/kg]","Rat. Pred. Cl. ([2]; rat, microsomes) [L/H/kg]",EC50 [1] [nM]
"COC(=O)N[C@H](C(=O)NN(Cc1c(F)cc(-c2ccn(C(F)F)n2)cc1F)C[C@H](O)[C@H](Cc1ccc(-c2cnn(C(F)F)c2)cc1)NC(=O)[C@@H](NC(=O)OC)C(C)(C)C(F)(F)F)C(C)(C)C [Example 218, Methyl ((5S,8S,9S,14S)-11-(4-(1-(difluoromethyl)-1H-pyrazol-3-yl)-2,6-difluorobenzyl)-8-(4-(1-(difluoromethyl)-H-pyrazol-4-yl)benzyl)-9-hydroxy-15,15-dimethyl-3,6,13-trioxo-5-(1,1,1-trifluoro-2-methylpropan-2-yl)-2-oxa-4,7,11,12-tetraazahexadecan-14-yl)carbamate]",2.99,0.92,0.45,,,,
"COC(=O)N[C@H](C(=O)N[C@@H](Cc1ccc(C#Cc2cnc(N3CC4CCC(C3)N4C3COC3)nc2)cc1)[C@@H](O)CN(Cc1c(F)cc(-c2cn(C(F)F)nn2)cc1F)NC(=O)[C@@H](NC(=O)OC)C(C)(C)C(F)(F)F)C(C)(C)C(F)(F)F [Example 219, Methyl ((5S,8S,9S,14S)-11-(4-(1-(difluoromethyl)-1H-1,2,3-triazol-4-yl)-2,6-difluorobenzyl)-16,16,16-trifluoro-9-hydroxy-15,15-dimethyl-8-(4-((2-(8-(oxetan-3-yl)-3,8-diazabicyclo[3.2.1]octan-3-yl)pyrimidin-5-yl)ethynyl)benzyl)-3,6,13-trioxo-5-(1,1,1-trifluoro-2-methylpropan-2-yl)-2-oxa-4,7,11,12-tetraazahexadecan-14-yl)carbamate]",4.1,,,0.19,<0.11,0.24,
"CC(C)([C@H](NC(=O)OC1COC1)C(=O)N[C@@H](Cc1ccc(C#Cc2cnc(N3CC4CCC(C3)N4C3COC3)nc2)cc1)[C@@H](O)CN(Cc1c(F)cc(-c2ccn(C(F)F)n2)cc1F)NC(=O)[C@@H](NC(=O)OC1COC1)C(C)(C)C(F)(F)F)C(F)(F)F [Example 220, Oxetan-3-yl ((2S)-1-(2-(4-(1-(difluoromethyl)-1H-pyrazol-3-yl)-2,6-difluorobenzyl)-2-((2S,3S)-2-hydroxy-4-(4-((2-(8-(oxetan-3-yl)-3,8-diazabicyclo [3.2.1]octan-3-yl)pyrimidin-5-yl)ethynyl)phenyl)-3-((S)-4,4,4-trifluoro-3,3-dimethyl-2-(((oxetan-3-yloxy)carbonyl)amino)butanamido)butyl)hydrazinyl)-4,4,4-trifluoro-3,3-dimethyl-1-oxobutan-2-yl)carbamate]",7.66,,,0.46,<0.11,0.34,
"COC(=O)N[C@H](C(=O)N[C@@H](Cc1ccc(C#Cc2ccc(N3CC4CCC(C3)N4C3COC3)nc2)cc1)[C@@H](O)CN(Cc1c(F)cc(-c2ccc(C)cn2)cc1F)NC(=O)[C@@H](NC(=O)OC)C(C)(C)C(F)(F)F)C(C)(C)C(F)(F)F [Example 229, Methyl ((5S,8S,9S,14S)-11-(2,6-difluoro-4-(5-methylpyridin-2-yl)benzyl)-16,16,16-trifluoro-9-hydroxy-15,15-dimethyl-8-(4-((6-(8-(oxetan-3-yl)-3,8-diazabicyclo [3.2.1]octan-3-yl)pyridin-3-yl)ethynyl)benzyl)-3,6,13-trioxo-5-(1,1,1-trifluoro-2-methylpropan-2-yl)-2-oxa-4,7,11,12-tetraazahexadecan-14-yl)carbamate]",7.86,,,,<0.11,0.26,
"COC(=O)N[C@H](C(=O)N[C@@H](Cc1ccc(C#Cc2ccc(N3CC4CCC(C3)N4C3COC3)nc2)cc1)[C@@H](O)CN(Cc1c(F)cc(-c2cnn(C(F)F)c2)cc1F)NC(=O)[C@@H](NC(=O)OC)C(C)(C)CF)C(C)(C)CF [Example 233, methyl ((5S,8S,9S,14S)-11-(4-(1-(difluoromethyl)-1H-pyrazol-4-yl)-2,6-difluorobenzyl)-16-fluoro-5-(1-fluoro-2-methylpropan-2-yl)-9-hydroxy-15,15-dimethyl-8-(4-((6-(8-(oxetan-3-yl)-3,8-diazabicyclo[3.2.1]octan-3-yl)pyridin-3-yl)ethynyl)benzyl)-3,6,13-trioxo-2-oxa-4,7,11,12-tetraazahexadecan-14-yl)carbamate]",2.71,,,,<0.11,<0.18,
"Methyl ((5S,8S,9S,14S)-8-(4-((6-(3,8-diaza bicyclo[3.2.1]octan-3-yl)pyridin-3-yl)ethynyl)benzyl)-1-(4-(1-(difluoromethyl)-1H-pyrazol-3-yl)-2,6-difluorobenzyl)-16,16,16-trifluoro-9-hydroxy-15,15-dimethyl-3,6,13-trioxo-5-(1,1,1-trifluoro-2-methylpropan-2-yl)-2-oxa-4,7,11,12-tetraazahexadecan-14-yl)carbamate 2,2,2-trifluoroacetate [Example 161]",,<0.11,,,,,14
"Methyl ((5S,8S,9S,14S)-11-(2,6-difluoro-4-(1-methyl-1H-pyrazol-3-yl)benzyl)-16,16,16-trifluoro-9-hydroxy-15,15-dimethyl-8-(4-((6-(8-(oxetan-3-yl)-3,8-diazabicyclo[3.2.1]octan-3-yl)pyridin-3-yl)ethynyl)benzyl-3,6,13-trioxo-5-(1,1,1-trifluoro-2-methylpropan-2-yl)-2-oxa-4,7,11,12-tetraazahexadecan-14-yl)carbamate [Example 128]",,0.15,0.37,,,,3.16
"Methyl ((5S,8S,9S,14S)-11-(4-(1-(difluoromethyl)-1H-pyrazol-4-yl)-2,6-difluorobenzyl)-16,16,16-trifluoro-9-hydroxy-15,15-dimethyl-8-(4-((6-(4-(oxetan-3-yl)piperazin-1-yl)pyridin-3-yl)ethynyl)benzyl)-3,6,13-trioxo-5-(1,1-trifluoro-2-methylpropan-2-yl)-2-oxa-4,7,11,12-tetraazahexadecan-14-yl)carbamate [Example 116]",,,,,0.19,0.39,2.79
